Reference: PubChem BioAssay AID588615 (The Scripps Research Institute Molecular Screening Center, 2011)
Calls of active or inactive are those of the source.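 Rule for the calls: active = p38 protein level shifted by 30% or more versus DMSO-treated cells, either down or up; inactive = shift in p38 protein level below 30%.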

Columns and labels:
[1] = molecular target: Mitogen-activated protein kinase 14 (Homo sapiens) (UniProt Q16539); assay: total p38 protein level change, either direction, late-stage follow-up, counter-screen for KLF5 inhibitor project, DLD1 cells, chemiluminescent western blot, powder samples (AID 588615); conditions: DLD-1 cells, p38 western blot, 24 h; at 10 µM; stronger effect = higher value
[2] = system: DLD-1 cells, p38 western blot, 24 h; assay: as above; conditions: measured here: p38 band fold change vs DMSO; at 10 µM

Mitogen-activated protein kinase 14 (Homo sapiens), sequence (Q16539 whole entry, looked up): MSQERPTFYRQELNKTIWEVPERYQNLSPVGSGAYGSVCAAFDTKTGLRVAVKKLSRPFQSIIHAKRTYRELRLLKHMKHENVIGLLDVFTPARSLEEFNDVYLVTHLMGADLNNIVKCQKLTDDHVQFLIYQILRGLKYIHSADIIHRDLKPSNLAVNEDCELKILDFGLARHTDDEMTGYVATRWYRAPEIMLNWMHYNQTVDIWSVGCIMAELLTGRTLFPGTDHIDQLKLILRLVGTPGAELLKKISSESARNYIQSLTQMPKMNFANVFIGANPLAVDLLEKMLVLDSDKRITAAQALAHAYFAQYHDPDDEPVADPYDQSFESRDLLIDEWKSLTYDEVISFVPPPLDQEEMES

SMILES: CN(C(=O)COC(=O)/C=C/c1cccc([N+](=O)[O-])c1)C1CCS(=O)(=O)C1 (centres undefined)
- inhibition [1]: 19.9% (inactive)

SMILES: CN(C(=O)CNC(=O)/C=C/c1cccc(Cl)c1)C1CCS(=O)(=O)C1 (centres undefined)
- fold change [2]: 1.05
- inhibition [1]: -5.46% (inactive)

SMILES: CN(C(=O)CNC(=O)/C=C/c1cccc(Cl)c1)C1CCS(=O)(=O)CC1
- inhibition [1]: 12.3% (inactive)
